Test results published in patent EP0038117A1, “Methods for preparing anti-hypertensive agents” (UNIVERSITY OF MIAMI, priority 1980, dated 1981).

Assay: Stability of aqueous solution on standing under ambient conditions (loss of inhibitory activity)
Type: physicochemical
Conditions: 1 mg per ml, pH of about 8, standing for as little as 30 minutes

activity of fresh aqueous solution upon standing: substantially less active
Structure (SMILES): C[C@H](CS)C(=O)N1CCC[C@H]1C(=O)O [SQ14225, D-3-mercapto-2-methylpropanoyl-L-proline]
